Values after ≈ are worked out from the molar mass of the structure shown.
Assays:
[1] = tested on: Acinetobacter baumannii; test: antibacterial activity in vitro, agar dilution method; type: cell-based; conditions: Table 5, MIC90 = 90% inhibitory concentration
In short: (§1)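 Agar dilution, CLSI M7-A7 (aerobic bacteria). Read-out: MIC; MIC90 = 90% inhibitory concentration.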

[2] = tested on: Hemophilus influenzae; test: as above; type: cell-based; conditions: Haemophilus influenzae; Table 5; MIC90 = 90% inhibitory concentration
In short: as §1

[3] = tested on: Methicillin-resistant Staphylococcus aureus (MRSA); test: as above; type: cell-based; conditions: Table 5, MIC90 = 90% inhibitory concentration
In short: as §1

[4] = tested on: Staphylococcus aureus; test: as above; type: cell-based
In short: as §1

[5] = tested on: Streptococcus constellatus; test: as above; type: cell-based; conditions: Table 5, MIC90 = 90% inhibitory concentration
In short: as §1

[6] = in vivo; design: species or system male SD rats; conditions: male, SD, rat
[7] = tested on: Staphylococcus aureus; test: bactericidal effects in vivo in neutropenic mouse thigh model with Staphylococcus aureus infection; design: species or system mice; conditions: for change values (24 h vs blank group mean 0 h) / log10 CFU for each thigh, mean ± standard deviations (24 h): 2 dose times, subcutaneous
Description: Bactericidal Effects of the Present Compounds In Vivo in Mouse Thigh Model with Staphylococcus aureus Infection SPF grade CD-1 (ICR) female mice housed in SPF environment, weighing 25±2 g, purchased from Beijing Vital River Laboratory Animal Technology Co., Ltd., licensed […] No: SCXK (Beijing) 2006-0009. Staphylococcus aureus: purchased from Shanghai Renji Hospital. Four days before bacterial infection, intraperitoneal (ip) injection of cyclophosphamide 150 mg/kg; 1 day before bacterial infection, intraperitoneal (ip) injection of cyclophosphamide 100 mg/kg; Picked fresh Staphylococcus aureus single colonies which were plate cultured for 18 h, and inoculated into broth and cultured at 35° C. for 18 h. The bacterial suspension was diluted with broth, and 0.5 McFarland turbidity standard indicator bacteria suspension was prepared with a McFarland turbiditor, 10-fold diluted with broth and injected into the thigh muscle of mice in an amount of 0.1 mL for each thigh. The concentration of the bacteria suspension was about 10^6-10^7 CFU/ml. The inoculum concentration was determined by an agar-plate count method. Blank Group: the animals were sacrificed by dislocation at 2 h (recorded as 0 h) after the inoculation of bacteria. Solvent group: The first administration time was set at 2 h (denoted as 0 h) after the animals were infected with bacteria, the solvent was subcutaneously administrated, the animals were sacrificed by dislocation at 24 h after the administration. Treatment group: The first administration time was set at 2 h (denoted as 0 h). […] The thigh muscle tissue was separated from the sacrificed animals, and 5 mL of sodium chloride injection was added, homogenated. The homogenate obtained were diluted series, taken 0.05 mL and inoculated to agar plates, two plates were inoculated in parallel for each gradient bacterial suspension, and incubated at 35° C. for 18 h. Observe the growth of the colonies on each plate, and select the plates with the number of colonies between 30-300 for colony count. The number of colonies was recorded as n1, n2. N represents the diluted fold. The number of colonies (units CFU) for each thigh was calculated according to the formula of “(n1+n2)/2/0.05×5×N”. A logarithm to the base 10 for the number of colonies of each thigh was calculated to obtain log10 CFU value for each thigh.

[8] = male SD rats, 5 mg/kg iv, cited from earlier work
[9] = monkey, oral; cited from earlier work
[10] = cited from earlier work

With `CN(C)c1cc(NC(=O)CNC(C)(C)C)c(O)c2c1C[C@H]1C[C@H]3[C@H](N(C)C)C(O)=C(C(N)=O)C(=O)[C@@]3(O)C(O)=C1C2=O` [tigecycline] the MIC90 [1] was 4 µg/mL (≈ 6.83 µM), the MIC90 [2] was 0.5 µg/mL (≈ 0.854 µM) and the MIC90 [3] was 1 µg/mL (≈ 1.71 µM). For the same molecule, the MIC90 ([4]; Staphylococcus aureus, Table 5, MIC90 = 90% inhibitory concentration) was 0.5 µg/mL (≈ 0.854 µM), the MIC ([4]; Table 10, Staphylococcus aureus of the thigh model) was 0.25 µg/mL (≈ 0.427 µM) and the MIC90 [5] was 0.25 µg/mL (≈ 0.427 µM). For the same molecule, the AUC(0-inf) ([6]; iv, 5 mg/kg) was 5120 ng·h/mL, the Vd ([6]; iv, 5 mg/kg) was 4.47 L/kg and the clearance ([6]; iv, 5 mg/kg) was 16.5 mL/min/kg. It also gave a half-life ([6]; iv, 5 mg/kg) of 3.8 h, an AUC(0-inf) ([6]; po, 10 mg/kg) of 296 ng·h/mL and a Cmax ([6]; po, 10 mg/kg) of 31.8 ng/mL. The Tmax ([6]; po, 10 mg/kg) was 0.5 h, the bioavailability ([6]; po, 10 mg/kg) was 1.8% and the “change values (24 h vs blank group mean 0 h)” value (“change values” below) ([7]; 2 mg/kg/day) was 1.63 log10 CFU. For the same molecule, the “log10 CFU for each thigh, mean ± standard deviations (24 h)” value ([7]; 2 mg/kg/day) was 8.02 ± 0.24 log10 CFU, the “bacteria growing values of each thigh” value ([7]; 6 mg/kg/day) was 0.63 and the “bactericidal effect against Staphylococcus aureus in vivo in mice” value ([7]; 6 mg/kg/day) was “did not show bactericidal effect”. The “change values” value ([7]; 6 mg/kg/day) was 0.63 log10 CFU, the “log10 CFU for each thigh, mean ± standard deviations (24 h)” value ([7]; 6 mg/kg/day) was 7.02 ± 0.43 log10 CFU and the “change values” value ([7]; 18 mg/kg/day) was −2.19 log10 CFU. The “log10 CFU for each thigh, mean ± standard deviations (24 h)” value ([7]; 18 mg/kg/day) was 4.20 ± 0.25 log10 CFU, the AUC ([8]; time 0-24 h) was 3550 ng·h/mL and the T1/2 [8] was 1 h. For the same molecule, the “absorption in vivo when orally used” value [9] was “can not be absorbed in vivo when orally used” and the “absorption in an oral use” value [10] was “can not be absorbed in an oral use”.

Source: patent US9365499B2, “9-aminomethyl substituted tetracycline compounds” (KBP Biosciences Co., Ltd., priority 2011, dated 2016)
